Assay [1] deals with PC12 cells. In words: Dopamine release of differentiated PC12 cells under stress conditions (N2 hypoxia, glutamate), Example 2. Format: cell-based, rats. Set-up: dopamine release: dose or concentration left out as unconfirmed. The note with it: FIG. 2. An excerpt:
The differentiated PC12 cells described in Example 1 were distributed to various vessels and exposed to differing conditions. These conditions are defined as follows: […]
The dopamine release may even be increased if, in addition to the nitrogen atmosphere, glutamate, which represents a neurotransmitter and has a neurotoxic effect in greater doses, was given as well (group: Glu+N2).
Thus, the addition of glutamate to the cells effects an increased dopamine release, particularly when the cells are kept under hypoxic conditions.

The test system of assay [2] is PC12 cells. Kind of assay: Dopamine release of differentiated PC12 cells in a hypoxic situation (helium instead of oxygen), Example 1. It is filed as cell-based, rats. An excerpt: An in vitro experiment with PC12 cells is concerned. These PC12 cells are dependants of a pheochromocytoma of rats. […] PC12 cells can be reproduced continuously in vitro. Following the addition of “nerve growth factor”, they start differentiating and become neurons which in many respects have the property of in vivo neurons, particularly the properties which relate to the neurotransmitter release. PC12 cells are acknowledged as neuronal model.
PC12 cells differentiated in such a manner when exposed to a hypoxic situation, release dopamine. […] If the cells are treated under these hypoxic conditions with xenon in defined concentrations over the same period of time, the neurotransmitter release will be dropped. […] If a hypoxic situation is triggered by a dose of helium instead of oxygen, the curve of the dopamine concentration will result as shown in the curve produced from the solid triangles. A maximum dopamine concentration is shown in this case after about 40 minutes. […] In the above-described experiment, the gases used were given to the cells by mixing them with the growth buffer for the cells. In this case, saturated gas buffer solutions are involved.

Structures are written as SMILES.

For `[Xe]` [xenon], the “dopamine release compared to the corresponding (glutamate+N2) experiment” value in the assay on PC12 cells [1] (Glu+Xe: 10 M glutamate for 30 minutes of incubation in xenon) is reported as “reduced by two-thirds”. Also, in the assay with PC12 cells [1] (Glu+Xe: glutamate for 30 minutes of incubation in xenon), the dopamine release result is on record as “slightly increased dopamine release”. Moreover, the unintentional neurotransmitter release entry with PC12 cells [1] (simultaneous supply of xenon, glutamate and/or hypoxic conditions) is given as “reduced many times over”. The “reversibility of the xenon effect” value in the assay on PC12 cells [2] (after the xenon is washed out, cells cannot be distinguished from untreated cells) is on record as “fully reversible”. Besides, the “dopamine concentration over the time course” value in the assay on PC12 cells [2] (xenon given in a hypoxic situation, saturated gas buffer solution, compared with non-stressed controls, FIG. 1A) is reported as “virtually no longer differ from the control cell population”. Further, in the assay with PC12 cells [2] (xenon in a hypoxic situation, compared with control cells, FIG. 1B), the “relative dopamine concentration (dopamine release)” value is “reduced down to values of the control cells”.

The values above are taken from US20030180375A1, “Use of xenon for treating neurointoxications” (AGA AB, priority 1999, published 2003).
